Data taken from patent publication US7875621B2, “Substituted 2-alkyl quinazolinone derivatives as PARP inhibitors” (Janssen Pharmaceutica NV, priority 2004, dated 2011).

Columns and labels:
[1] = target: T1, PARP-1 enzyme (Homo sapiens, UniProt P09874); assay: In vitro filtration assay for PARP-1 inhibitory activity; assay type: biochemical
Procedure: In Vitro Filtration Assay for PARP-1 Inhibitory Activity
Compounds of the present invention were tested in an in vitro filtration assay assessing PARP-1 activity (triggered in the presence of nicked DNA) by means of its histone poly(ADP-ribosyl)ation activity using [^32P]-NAD as ADP-ribosyl donor. The radioactive ribosylated histones were precipitated by trichloroacetic acid (TCA) in 96-well filterplates and the incorporated [^32P] measured using a scintillation counter
A mixture of histones (stock solution: 5 mg/ml in H2O), NAD^+ (stock solution: 100 mM in H2O), and [^32P]-NAD^+ in incubation buffer (50 mM Tris/HCl, pH 8; 0.2 mM DTT; 4 mM MgCl2) was made. A mixture of the PARP-1 enzyme (5-10 μg/ml) and nicked DNA was also made. The nicked DNA was prepared as described in the in vitro SPA for PARP-1 inhibitory activity. […] of the PARP-1 enzyme/DNA mixture together with 1 μl of compound in DMSO and 25 μl of histones-NAD^+/[^32P]-NAD^+ mixture was added per well of a 96-well filterplate (0.45 μm, supplier Millipore). The final concentrations in the incubation mixture were 2 μg/ml for the histones, 0.1 mM for the NAD^+, […] (0.5 μC) for the [^32P]-NAD^+ and 2 μg/ml for the nicked DNA. Plates were incubated for 15 min. at room temperature and the reaction was terminated by the addition of 10 μl ice cold 100% TCA followed by the addition of 10 μl ice-cold BSA solution (1% in H2O). The protein fraction was allowed to precipitate for 10 min. at 4° C. and plates were vacuum filtered. The plates were subsequently washed with, for each well, 1 ml of 10% ice cold TCA, 1 ml of 5% ice cold TCA and 1 ml of 5% TCA at room temperature. Finally 100 μl of scintillation solution (Microscint 40, Packard) was added to each well and the plates were transferred to a TopCountNXT™ (supplier: Packard) for scintillation counting and values were expressed as counts per minute (cpm). For each experiment, controls (containing PARP-1 enzyme and DMSO without compound), a blank incubation (containing DMSO but no PARP-1 enzyme or compound) and samples (containing PARP-1 enzyme and compound dissolved in DMSO) were run in parallel. All compounds tested were dissolved and eventually further diluted in DMSO. In first instance, compounds were tested at a concentration of 10^−5M. […] In each test, the blank value was subtracted from both the control and the sample values. The control sample represented maximal PARP-1 enzyme activity. For each sample, the amount of cpm was expressed as a percentage of the mean cpm value of the controls. When appropriate, IC50-values (concentration of the drug, needed to reduce the PARP-1 enzyme activity to 50% of the control) were computed using linear interpolation between the experimental points just above and below the 50% level. Herein the effects of test compounds are expressed as pIC50 (the negative log value of the IC50-value). As a reference compound, 4-amino-1,8-naphthalimide was included to validate the filtration assay.

[2] = target: T1, PARP-1 enzyme; assay: In vitro scintillation proximity assay (SPA) for PARP-1 inhibitory activity; assay type: biochemical
Procedure: In Vitro Scintillation Proximity Assay (SPA) for PARP-1 Inhibitory Activity
Compounds of the present invention were tested in an in vitro assay based on SPA technology (proprietary to Amersham Pharmacia Biotech).
In principle, the assay relies upon the well established SPA technology for the detection of poly(ADP-ribosyl)ation of biotinylated target proteins, i.e histones. This ribosylation is induced using nicked DNA activated PARP-1 enzyme and [^3H]-nicotinamide adenine dinucleotide ([^3H]-NAD^+) as ADP-ribosyl donor.
As inducer of PARP-1 enzyme activity, nicked DNA was prepared. For this, 25 mg of DNA (supplier: Sigma) was dissolved in 25 ml DNAse buffer (10 mM Tris-HCl, pH 7.4; 0.5 mg/ml Bovine Serum Albumine (BSA); 5 mM MgCl2.6H2O and 1 mM KCl) to which 50 μl DNAse solution (1 mg/ml in 0.15 M NaCl) was added. After an incubation of 90 min. at 37° C., the reaction was terminated by adding 1.45 g NaCl, followed by a further incubation at 58° C. for 15 min. The reaction mixture was cooled on ice and dialysed at 4° C. for respectively 1.5 and 2 hours against 1.5 l of 0.2 M KCl, and twice against 1.5 l of 0.01 M KCl for 1.5 and 2 h respectively. The mixture was aliquoted and stored at −20° C. Histones (1 mg/ml, type II-A, supplier: Sigma) were biotinylated using the biotinylation kit of Amersham and stored aliquoted at −20° C. A stock solution of 100 mg/ml SPA poly(vinyl toluene) (PVT) beads (supplier: Amersham) was made in PBS. A stock solution of [^3H]-NAD^+ was made by adding 120 μl of [^3H]-NAD^+ (0.1 mCi/ml, supplier: NEN) to 6 ml incubation buffer (50 mM Tris/HCl, pH 8; 0.2 mM DTT; 4 mM MgCl2). A solution of 4 mM NAD^+ (supplier: Roche) was made in incubation buffer (from a 100 mM stock solution in water stored at −20° C.). The PARP-1 enzyme was produced using art known techniques, i.e. cloning and expression of the protein starting from human liver cDNA. Information concerning the used protein sequence of the PARP-1 enzyme including literature references can be found in the Swiss-Prot database under primary accession number P09874. Biotinylated histones and PVT-SPA beads were mixed and pre-incubated for 30 min. at room temperature. PARP-1 enzyme (concentration was lot dependent) was mixed with the nicked DNA and the mixture was pre-incubated for 30 min. at 4° C. Equal parts of this histones/PVT-SPA beads solution and PARP-1 enzyme/DNA solution were mixed and 75 μl of this mixture together with 1 μl of compound in DMSO and 25 μl of [^3H]-NAD^+ was added per well into a 96-well microtiterplate. The final concentrations in the incubation mixture were 2 μg/ml for the biotinylated histones, 2 mg/ml for the PVT-SPA beads, 2 μg/ml for the nicked DNA and between 5-10 μg/ml for the PARP-1 enzyme. After incubation of the mixture for 15 min. at room temperature, the reaction was terminated by adding 100 μl of 4 mM NAD in incubation buffer (final concentration 2 mM) and plates were mixed.
The beads were allowed to sediment for at least 15 min. and plates transferred to a TopCountNXT™ (Packard) for scintillation counting, values were expressed as counts per minute (cpm). For each experiment, controls (containing PARP-1 enzyme and DMSO without compound), a blank incubation (containing DMSO but no PARP-1 enzyme or compound) and samples (containing PARP-1 enzyme and compound dissolved in DMSO) were run in parallel. All compounds tested were dissolved and eventually further diluted in DMSO. […] In each test, the blank value was subtracted from both the control and the sample values. The control sample represented maximal PARP-1 enzyme activity. For each sample, the amount of cpm was expressed as a percentage of the mean cpm value of the controls. When appropriate, IC50-values (concentration of the drug, needed to reduce the PARP-1 enzyme activity to 50% of the control) were computed using linear interpolation between the experimental points just above and below the 50% level. […]

[3] = [32P]-NAD, nicked DNA, histones, read-out: in vitro filter assay PARP-1 pIC50 (converted)
[4] = [3H]-NAD+, nicked DNA, biotinylated histones, read-out: in vitro SPA assay PARP-1 pIC50 (converted)

T1 sequence (P09874 whole entry): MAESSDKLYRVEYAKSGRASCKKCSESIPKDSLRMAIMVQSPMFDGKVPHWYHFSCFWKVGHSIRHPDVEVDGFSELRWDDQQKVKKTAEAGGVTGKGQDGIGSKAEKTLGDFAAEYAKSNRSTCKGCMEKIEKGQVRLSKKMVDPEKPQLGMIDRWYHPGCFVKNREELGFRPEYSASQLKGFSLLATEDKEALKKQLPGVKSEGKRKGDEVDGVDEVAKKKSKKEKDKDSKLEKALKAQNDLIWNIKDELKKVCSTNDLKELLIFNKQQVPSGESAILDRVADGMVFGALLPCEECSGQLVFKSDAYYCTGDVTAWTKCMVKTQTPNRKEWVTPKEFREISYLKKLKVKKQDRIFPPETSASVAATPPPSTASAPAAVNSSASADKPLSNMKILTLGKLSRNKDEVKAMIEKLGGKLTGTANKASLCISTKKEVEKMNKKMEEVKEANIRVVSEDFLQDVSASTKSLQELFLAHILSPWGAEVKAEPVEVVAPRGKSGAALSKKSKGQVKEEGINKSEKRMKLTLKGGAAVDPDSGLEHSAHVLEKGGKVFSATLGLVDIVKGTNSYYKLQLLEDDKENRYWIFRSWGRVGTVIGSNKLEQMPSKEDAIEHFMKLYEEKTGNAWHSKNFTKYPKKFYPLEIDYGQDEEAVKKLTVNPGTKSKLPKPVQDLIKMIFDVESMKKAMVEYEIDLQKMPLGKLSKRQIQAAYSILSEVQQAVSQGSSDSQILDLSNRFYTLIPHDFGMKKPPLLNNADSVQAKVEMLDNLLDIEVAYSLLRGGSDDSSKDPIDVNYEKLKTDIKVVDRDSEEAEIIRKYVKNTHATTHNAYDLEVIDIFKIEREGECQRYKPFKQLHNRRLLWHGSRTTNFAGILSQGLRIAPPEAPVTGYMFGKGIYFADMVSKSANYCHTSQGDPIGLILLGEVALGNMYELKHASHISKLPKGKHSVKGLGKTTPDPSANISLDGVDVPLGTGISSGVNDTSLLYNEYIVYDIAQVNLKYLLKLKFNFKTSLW

Work on `O=C1NCN(c2ccccc2)C12CCN(CCCc1nc3ccccc3c(=O)[nH]1)CC2` [Compound 2] yielded an IC50 [1, 3] of 4980 nM and an IC50 [2, 4] of 385 nM.

`O=C(CC1CCN(CCc2nc3ccccc3c(=O)[nH]2)CC1)c1ccc(F)cc1` [Compound 3] gave an IC50 [1, 3] of 4260 nM and an IC50 [2, 4] of 560 nM.

With `NC(=O)C1(c2ccccc2)CCN(CCCc2nc3ccccc3c(=O)[nH]2)CC1` [Compound 4] the IC50 [1, 3] was 76.7 nM and the IC50 [2, 4] was 20 nM.

`NC(=O)C1(c2ccccc2)CCN(CCCC2NC(=O)c3ccccc3N2)CC1` (stereo not drawn) [Compound 5] showed an IC50 [1, 3] of 300 nM and an IC50 [2, 4] of 22.9 nM.

For `O=C1NC(CCN2CCC3(CC2)C(=O)NCN3c2ccccc2)Nc2ccccc21` (stereo not drawn) [Compound 6], the IC50 [1, 3] was 2140 nM and the IC50 [2, 4] was 178 nM.

`O=C1NC(CCCN2CCC(n3c(=O)[nH]c4ccccc43)CC2)Nc2ccccc21` (stereo not drawn) [Compound 7] gave an IC50 [1, 3] of 4160 nM and an IC50 [2, 4] of 585 nM.

With `O=C(NC1CCN(CCCC2NC(=O)c3ccccc3N2)CC1)c1ccccc1` (stereo not drawn) [Compound 8] the IC50 [1, 3] was 1570 nM and the IC50 [2, 4] was 236 nM.

`O=C(c1ccc(F)cc1)C1CCN(CCc2nc3ccccc3c(=O)[nH]2)CC1` [Compound 9] gave an IC50 [1, 3] of 5710 nM and an IC50 [2, 4] of 611 nM.

`NC(=O)C1(N2CCOCC2)CCN(CCCc2nc3ccccc3c(=O)[nH]2)CC1` [Compound 11] gave an IC50 [1, 3] of 1140 nM and an IC50 [2, 4] of 188 nM.

Work on `O=C(NC1CCN(CCCc2nc3ccccc3c(=O)[nH]2)CC1)c1ccccc1` [Compound 12] yielded an IC50 [1, 3] of 673 nM and an IC50 [2, 4] of 117 nM.

`O=C1NC(CCN2CCC(n3c(=O)[nH]c4ccccc43)CC2)Nc2ccccc21` (stereo not drawn) [Compound 13] gave an IC50 [1] of 4660 nM and an IC50 [2] of 318 nM.

For `O=C(c1ccc(F)cc1)C1CCN(CCCc2nc3ccccc3c(=O)[nH]2)CC1` [Compound 14], the IC50 [1, 3] was 546 nM and the IC50 [2, 4] was 58.6 nM.
